# Laboratory results taken from patent US9750817B2, “Amphotericin B derivatives” (priority 2015, dated 2017).
# “And” between values parts separate entries of the source, which are not always exact repeats. Identical values can stand only once.
# Legend:
# [1] = test system: Aspergillus flavus; experiment: MIC/MFC broth dilution (CLSI), clinical isolates; assay type: cell-based; settings: A. Flavus, 3 isolates, 48 h at 37° C.
# Method: (§1) Isolates of Aspergillus fumigatus, Aspergillus flavus, Aspergillus terreus Aspergillus niger, Rhizopus oryzae, Candida albicans and Candida krusei were isolated from patients in Israeli hospitals and used for in vitro efficacy studies.
# (§2) Efficacy was evaluated by measuring minimum inhibitory concentration (MIC) and minimum fungicidal concentration (MFC) values for fungal isolates. Testing of isolates was performed according to the Clinical & Laboratory Standards Institute (CLSI) method. (CLSI. 2008. M27-A3 Reference method for broth dilution antifungal susceptibility testing of yeasts; Approved Standard—3rd edition. Clinical and Laboratory Standards Institute, Wayne). RPMI MOPS media was used throughout the experiment as growth and dilution media. Spores and yeast cells were harvested in 0.05% Tween from 24-48 h and cultures were grown in rich yeast extract-agar-glucose (YAG) medium (composed of: 0.5% w/v yeast extract, 1% w/v glucose, 10 millimolar (mM) MgCl2, supplemented with 0.1% v/v trace elements solution, and 0.2% v/v vitamin mix). The spores and the yeast cells were counted and diluted to a final concentration of 2.5×10^4 per ml. A stock solution of 5 mg/ml was prepared in dimethylsulfoxide for free AMB. Compounds 4 and 6 were prepared in sterile saline. Double dilutions of each drug were performed in 100 μL volume of RPMI-MOPS in 96 well plates beginning with a final concentration of 32 micrograms (μg)/well of each drug to 0.06 μg/well. 2500 spores or yeast cells were added to each well. Results were recorded 48 h post incubation at 37° C. […] The MFC was defined as the lowest drug concentration that yielded three or fewer colonies (i.e. 99% of the inoculum was killed).
# [2] = test system: Aspergillus fumigatus; experiment: MIC/MFC broth dilution (CLSI), clinical isolates; assay type: cell-based; settings: A. fumigatus, 4 isolates, 48 h at 37° C.
# Method: as §1, §2
# [3] = test system: Aspergillus niger; experiment: MIC/MFC broth dilution (CLSI), clinical isolates; assay type: cell-based; settings: A. niger, 3 isolates, 48 h at 37° C.
# Method: as §1, §2
# [4] = test system: Aspergillus terreus; experiment: MIC/MFC broth dilution (CLSI), clinical isolates; assay type: cell-based; settings: listed as printed C. terreus, 1 isolate, 48 h at 37° C.
# Method: as §1, §2
# [5] = test system: Candida albicans; experiment: MIC/MFC broth dilution (CLSI), clinical isolates; assay type: cell-based; settings: C. albicans, 2 isolates, 48 h at 37° C.
# Method: as §1, §2
# [6] = test system: Candida krusei; experiment: MIC/MFC broth dilution (CLSI), clinical isolates; assay type: cell-based; settings: C. krusei, 3 isolates, 48 h at 37° C.
# Method: as §1, §2
# [7] = test system: Rhizopus oryzae; experiment: MIC/MFC broth dilution (CLSI), clinical isolates; assay type: cell-based; settings: 1 isolate, 48 h at 37° C.
# Method: as §1, §2
# [8] = test system: C. albicans; experiment: Fungal burden in kidneys of infected mice; assay type: in vivo; settings: AMB 1 mg/kg; Compound 6 1.75, 3.5 and 7 mg/kg
# Method: Reference is made to FIGS. 6A-E. ICR female mice were inoculated with C. albicans in groups of 3 as described in example 6B and were killed 48 hours later for assessment of fungal burden. One kidney and the spleen were removed aseptically from each animal and homogenized in 1 mL of sterile normal saline. Serial 10-fold dilutions of the homogenates were spread on YAG plates, and colony-forming units (CFU)/organ was determined from the colony count after 24 hours incubation at 37° C. All mouse experiments were performed in duplicates.
# At necropsy, fungal burden in mouse tissues was evaluated. […] FIGS. 6C-E show micrographs of mice treated with Compound 6 at dosages of 1.75 mg/kg, 3.5 mg/kg and 7 mg/kg, respectively.
# [9] = Pharmacokinetics upon single intravenous administration; assay type: in vivo, mice; parameters: ke: unit not given here; settings: mouse serum, IV bolus; AMB 1 mg/kg, Compound 6 5 mg/kg
# Method: AMB and Compound 6 solution in saline were administrated intravenously (IV) to groups of mice at a dose of 1 and 5 mg/kg body weight, respectively. The mice received an IV bolus via the tail vein. Mice were bled over a 48 h period at the following time points: 0, 5, 15 and 30 minutes and 1, 2, 6, 12, 24 and 48 h post-dosing (3 mice per time point). Bleeding was conducted using a facial vein technique into sterile Eppendorf tubes. Whole blood samples of 150 μl were collected at each time point, stored for 30 min at room temperature for clotting and centrifuged at 10,000 RPM for 10 minutes until serum separated. The serum samples were stored at −20° C.
# The concentration of Compound 6 in the serum was measured by HPLC as follows: UltiMate® 3000 system (Dionex) was used equipped with 3000 pump, VWD-3000 UV-Vis detector and Chromeleon® 6.80 software. The column used was LiChroCART® 250×4.6 mm Purospher® STAR (5 μm) C-18 RP (reverse phase). Chromatographic conditions: flow: 1.0 ml/min, linear water (buffer A)/acetonitrile (ACN) (buffer B) gradient (buffer A—100% water, 0.1% TFA; buffer B—100% ACN, 0.1% TFA).
# 200 μl of methanol was added to 100 μl of serum sample and vortexed for 20 seconds, stored for 30 min at room temperature (22° C.), then centrifuged at 14,000 RPM for 10 minutes. The supernatant was filtered through a 0.22 μm filter and aliquots of 100 μl were analyzed by HPLC. AMB and Compound 6 were detected at a wavelength of 407 nm.
# The pharmacokinetic graphs depicting drug concentration over time are shown in FIGS. 8A-8B (over 24 hours and 120 minutes respectively) and the calculated PK values are shown in Table 6 below.
# [10] = Solubility in 0.9% saline after vortex, sonication and centrifuge; assay type: physicochemical
# [11] = Stability (hydrolysis) in phosphate buffered saline; assay type: physicochemical
Structure (SMILES),MFC [1] [µg/mL],MIC [1] [µg/mL],MFC [2] [µg/mL],MIC [2] [µg/mL],MFC [3] [µg/mL],MIC [3] [µg/mL],MFC [4] [µg/mL],MIC [4] [µg/mL],MFC [5] [µg/mL],MIC [5] [µg/mL],MFC [6] [µg/mL],MIC [6] [µg/mL],MFC [7] [µg/mL],MIC [7] [µg/mL],fungal hyphae in kidney sections (Fontana-Masson silver staining) [8],AUC0-24 [9] [µg·h/mL],CL [9] [mL/h],MRT0-24 [9] [h],Vd [9] [L],t1/2 [9],other results
"C[C@@H]1[C@H](O)[C@@H](C)/C=C/C=C/C=C/C=C/C=C/C=C/C=C/[C@H](O[C@@H]2O[C@H](C)[C@@H](O)[C@H](N)[C@@H]2O)C[C@@H]2O[C@](O)(C[C@@H](O)C[C@@H](O)[C@H](O)CC[C@@H](O)C[C@@H](O)CC(=O)O[C@H]1C)C[C@H](O)[C@H]2C(=O)O [AMB, Amphotericin B]",0.5 to 1,0.5 to 1,0.5 to 4,0.25 to 1,0.5 to 1,0.5 to 1,4,2,0.5,0.25,1 to 2,0.5,0.25,0.25,barely detectable,63.983,0.250,9.664,0.006,15.96 h and 15.964 h,
"COC(=O)C1C(O)CC2(O)CC(O)CC(O)C(O)CCC(O)CC(O)CC(=O)OC(C)C(C)C(O)C(C)C=CC=CC=CC=CC=CC=CC=CC(OC3OC(C)C(O)C(NC(=O)CCOCCOCCOCCOCCOCCOCCOCCOCCN)C3O)CC1O2 (centres unmarked) [Compound 6, amphotericin B amide, methyl ester-PEG(8)-amine]",2 to 4,2 to 4,2 to 8,1 to 8,2,2,16,16,2,1,4,2,4,4,barely detectable,421.234,0.508,5.431,0.002,3.153 h,increased solubility relative to corresponding non-PEG-conjugated AMB compounds [10]: greater than 700 fold; hydrolysis after 4 hours ([11]; 4 hours): no hydrolysis could be observed; level of hydrolysis after 24 hours ([11]; 24 hours): 0.8%; ke [9]: 0.220
